{"source": "patent US10597388B2", "about": "“Pyridazinone herbicides” (FMC CORPORATION, priority 2014, dated 2020)", "assay_in_all_cases": "Test D controlled growth environment herbicide test, pre- and postemergence", "format_in_all_cases": "in vivo", "key": {"[1]": {"test_system": "windgrass (Apera spica-venti)", "how_it_was_run": "(§1)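 Species sown in silt loam and sprayed preemergence, or grown in peat-based medium to 2–18 cm (1- to 4-leaf stage) and sprayed postemergence, with compounds in non-phytotoxic solvent plus surfactant. Visual injury scored versus controls after 14–21 d in a controlled environment, 0 (no effect) to 100 (complete control).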"}, "[2]": {"test_system": "chickweed (common chickweed, Stellaria media)", "how_it_was_run": "as §1"}, "[3]": {"test_system": "lambsquarters (Chenopodium album)", "how_it_was_run": "as §1"}, "[4]": {"test_system": "blackgrass (Alopecurus myosuroides)", "how_it_was_run": "as §1"}, "[5]": {"test_system": "bromegrass, downy (downy bromegrass, Bromus tectorum)", "how_it_was_run": "as §1"}, "[6]": {"test_system": "ryegrass, Italian (Italian ryegrass, Lolium multiflorum)", "how_it_was_run": "as §1"}, "[7]": {"test_system": "field violet (Viola arvensis)", "details": "Preemergence", "how_it_was_run": "as §1"}, "[8]": {"test_system": "radish, wild (wild radish, Raphanus raphanistrum)", "how_it_was_run": "as §1"}, "[9]": {"test_system": "speedwell (bird's-eye speedwell, Veronica persica)", "how_it_was_run": "as §1"}, "[10]": {"test_system": "wheat, winter (winter wheat, Triticum aestivum)", "how_it_was_run": "as §1"}, "[11]": {"test_system": "deadnettle (henbit deadnettle, Lamium amplexicaule)", "how_it_was_run": "as §1"}, "[12]": {"test_system": "chamomile (scentless chamomile, Matricaria inodora)", "details": "Preemergence", "how_it_was_run": "as §1"}, "[13]": {"test_system": "kochia (Kochia scoparia)", "how_it_was_run": "as §1"}, "[14]": {"details": "Postemergence, 31 g ai/ha, scale 0 to 100 (0 no effect, 100 complete control)"}, "[15]": {"details": "Postemergence, 125 g ai/ha, visual rating on scale 0 (no effect) to 100 (complete control), 14 to 21 d"}, "[16]": {"details": "Postemergence, 250 g ai/ha, scale 0 to 100 (0 no effect, 100 complete control)"}, "[17]": {"details": "Preemergence, 62 g ai/ha, scale 0 to 100 (0 no effect, 100 complete control)"}, "[18]": {"details": "Preemergence, 125 g ai/ha, scale 0 to 100 (0 no effect, 100 complete control)"}, "[19]": {"details": "Preemergence, 250 g ai/ha, scale 0 to 100, 0 no effect, 100 complete control"}, "[20]": {"details": "postemergence, 62 g ai/ha, scale 0 to 100, 0 no effect, 100 complete control"}, "[21]": {"details": "62 g ai/ha, scale 0 to 100 (0 no effect, 100 complete control)"}, "[22]": {"details": "125 g ai/ha, scale 0 to 100 (0 no effect, 100 complete control)"}, "[23]": {"details": "250 g ai/ha, scale 0 to 100, 0 no effect, 100 complete control"}}}
{"molecule": "CCc1sc2ccc(C)cc2c1-c1c(O)c(C)nn(C)c1=O", "note": "[Compound 47]", "values": [{"measurement": "Windgrass plant response rating", "setting": "[1]; [14]", "result": 10}, {"measurement": "Plant response rating, Windgrass", "setting": "[1]; [15]", "result": 15}, {"measurement": "Plant response rating, Windgrass", "setting": "[1]; [16]", "result": 15}, {"measurement": "Plant response rating (scale of 0 to 100), Windgrass", "setting": "[1]; Preemergence, 31 g ai/ha", "result": 5}, {"measurement": "Plant response rating, Windgrass", "setting": "[1]; [17]", "result": 5}, {"measurement": "Plant response rating, Windgrass", "setting": "[1]; [18]", "result": 20}, {"measurement": "Plant response rating, Windgrass", "setting": "[1]; [19]", "result": 75}, {"measurement": "Plant response rating, Windgrass", "setting": "[1]; [20]", "result": 10}, {"measurement": "Chickweed plant response rating", "setting": "[2]; [14]", "result": 90}, {"measurement": "Plant response rating, Chickweed", "setting": "[2]; [15]", "result": 95}, {"measurement": "Plant response rating, Chickweed", "setting": "[2]; [16]", "result": 100}, {"measurement": "Plant response rating (scale of 0 to 100), Chickweed", "setting": "[2]; Preemergence, 31 g ai/ha", "result": 90}, {"measurement": "Plant response rating, Chickweed", "setting": "[2]; [17]", "result": 95}, {"measurement": "Plant response rating, Chickweed", "setting": "[2]; [18]", "result": 100}, {"measurement": "Plant response rating, Chickweed", "setting": "[2]; [19]", "result": 90}, {"measurement": "Plant response rating, Chickweed", "setting": "[2]; [20]", "result": 95}, {"measurement": "Lambsquarters plant response rating", "setting": "[3]; [14]", "result": 45}, {"measurement": "Plant response rating, Lambsquarters", "setting": "[3]; [15]", "result": 70}, {"measurement": "Plant response rating, Lambsquarters", "setting": "[3]; [16]", "result": 70}, {"measurement": "Plant response rating (scale of 0 to 100), Lambsquarters", "setting": "[3]; Preemergence, 31 g ai/ha", "result": 100}, {"measurement": "Plant response rating, Lambsquarters", "setting": "[3]; [17]", "result": 100}, {"measurement": "Plant response rating, Lambsquarters", "setting": "[3]; [18]", "result": 100}, {"measurement": "Plant response rating, Lambsquarters", "setting": "[3]; [19]", "result": 100}, {"measurement": "Plant response rating, Lambsquarters", "setting": "[3]; [20]", "result": 50}, {"measurement": "Blackgrass plant response rating", "setting": "[4]; [14]", "result": 25}, {"measurement": "Plant response rating, Blackgrass", "setting": "[4]; [15]", "result": 35}, {"measurement": "Plant response rating, Blackgrass", "setting": "[4]; [16]", "result": 65}, {"measurement": "Plant response rating (scale of 0 to 100), Blackgrass", "setting": "[4]; Preemergence, 31 g ai/ha", "result": 5}, {"measurement": "Plant response rating, Blackgrass", "setting": "[4]; [17]", "result": 20}, {"measurement": "Plant response rating, Blackgrass", "setting": "[4]; [18]", "result": 30}, {"measurement": "Blackgrass plant response rating", "setting": "[4]; [19]", "result": 50}, {"measurement": "Plant response rating, Blackgrass", "setting": "[4]; [20]", "result": 25}, {"measurement": "Bromegrass, Downy plant response rating", "setting": "[5]; [14]", "result": 5}, {"measurement": "Plant response rating, Bromegrass, Downy", "setting": "[5]; [15]", "result": 5}, {"measurement": "Plant response rating, Bromegrass, Downy", "setting": "[5]; [16]", "result": 5}, {"measurement": "Plant response rating (scale of 0 to 100), Bromegrass, Downy", "setting": "[5]; Preemergence, 31 g ai/ha", "result": 5}, {"measurement": "Plant response rating, Bromegrass, Downy", "setting": "[5]; [17]", "result": 10}, {"measurement": "Plant response rating, Bromegrass, Downy", "setting": "[5]; [18]", "result": 15}, {"measurement": "Plant response rating, Bromegrass, Downy", "setting": "[5]; [19]", "result": 15}, {"measurement": "Plant response rating, Bromegrass, Downy", "setting": "[5]; [20]", "result": 0}, {"measurement": "Ryegrass, Italian plant response rating", "setting": "[6]; [14]", "result": 10}, {"measurement": "Plant response rating, Ryegrass, Italian", "setting": "[6]; [15]", "result": 30}, {"measurement": "Plant response rating, Ryegrass, Italian", "setting": "[6]; [16]", "result": 45}, {"measurement": "Plant response rating (scale of 0 to 100), Ryegrass, Italian", "setting": "[6]; Preemergence, 31 g ai/ha", "result": 20}, {"measurement": "Plant response rating, Ryegrass, Italian", "setting": "[6]; [17]", "result": 30}, {"measurement": "Plant response rating, Ryegrass, Italian", "setting": "[6]; [18]", "result": 60}, {"measurement": "Plant response rating, Ryegrass, Italian", "setting": "[6]; [19]", "result": 70}, {"measurement": "Plant response rating, Ryegrass, Italian", "setting": "[6]; [20]", "result": 10}, {"measurement": "Plant response rating (scale of 0 to 100), Field Violet", "setting": "[7]; 31 g ai/ha", "result": 95}, {"measurement": "Plant response rating, Field Violet", "setting": "[7]; [21]", "result": 100}, {"measurement": "Plant response rating, Field Violet", "setting": "[7]; [22]", "result": 100}, {"measurement": "Plant response rating, Field Violet", "setting": "[7]; [23]", "result": 100}, {"measurement": "Radish, Wild plant response rating", "setting": "[8]; [14]", "result": 5}, {"measurement": "Plant response rating, Radish, Wild", "setting": "[8]; [15]", "result": 5}, {"measurement": "Plant response rating, Radish, Wild", "setting": "[8]; [16]", "result": 20}, {"measurement": "Plant response rating (scale of 0 to 100), Radish, Wild", "setting": "[8]; Preemergence, 31 g ai/ha", "result": 20}, {"measurement": "Plant response rating, Radish, Wild", "setting": "[8]; [17]", "result": 25}, {"measurement": "Plant response rating, Radish, Wild", "setting": "[8]; [18]", "result": 100}, {"measurement": "Plant response rating, Radish, Wild", "setting": "[8]; [19]", "result": 85}, {"measurement": "Plant response rating, Radish, Wild", "setting": "[8]; [20]", "result": 10}, {"measurement": "Speedwell plant response rating", "setting": "[9]; [14]", "result": 10}, {"measurement": "Plant response rating, Speedwell", "setting": "[9]; [15]", "result": 40}, {"measurement": "Plant response rating, Speedwell", "setting": "[9]; [16]", "result": 50}, {"measurement": "Plant response rating (scale of 0 to 100), Speedwell", "setting": "[9]; Preemergence, 31 g ai/ha", "result": 25}, {"measurement": "Plant response rating, Speedwell", "setting": "[9]; [17]", "result": 25}, {"measurement": "Plant response rating, Speedwell", "setting": "[9]; [18]", "result": 80}, {"measurement": "Plant response rating, Speedwell", "setting": "[9]; [19]", "result": 100}, {"measurement": "Plant response rating, Speedwell", "setting": "[9]; [20]", "result": 10}, {"measurement": "Wheat, Winter plant response rating", "setting": "[10]; [14]", "result": 5}, {"measurement": "Plant response rating, Wheat, Winter", "setting": "[10]; [15]", "result": 10}, {"measurement": "Plant response rating, Wheat, Winter", "setting": "[10]; [16]", "result": 5}, {"measurement": "Plant response rating (scale of 0 to 100), Wheat, Winter", "setting": "[10]; Preemergence, 31 g ai/ha", "result": 5}, {"measurement": "Plant response rating, Wheat, Winter", "setting": "[10]; [17]", "result": 5}, {"measurement": "Plant response rating, Wheat, Winter", "setting": "[10]; [18]", "result": 10}, {"measurement": "Plant response rating, Wheat, Winter", "setting": "[10]; [19]", "result": 10}, {"measurement": "Plant response rating, Wheat, Winter", "setting": "[10]; [20]", "result": 5}, {"measurement": "Deadnettle plant response rating", "setting": "[11]; [14]", "result": 20}, {"measurement": "Plant response rating, Deadnettle", "setting": "[11]; [15]", "result": 30}, {"measurement": "Plant response rating, Deadnettle", "setting": "[11]; [16]", "result": 30}, {"measurement": "Plant response rating (scale of 0 to 100), Deadnettle", "setting": "[11]; Preemergence, 31 g ai/ha", "result": 0}, {"measurement": "Plant response rating, Deadnettle", "setting": "[11]; [17]", "result": 10}, {"measurement": "Plant response rating, Deadnettle", "setting": "[11]; [18]", "result": 10}, {"measurement": "Plant response rating, Deadnettle", "setting": "[11]; [19]", "result": 65}, {"measurement": "Plant response rating, Deadnettle", "setting": "[11]; [20]", "result": 20}, {"measurement": "Plant response rating (scale of 0 to 100), Chamomile", "setting": "[12]; 31 g ai/ha", "result": 80}, {"measurement": "Plant response rating, Chamomile", "setting": "[12]; [21]", "result": 80}, {"measurement": "Plant response rating, Chamomile", "setting": "[12]; [22]", "result": 85}, {"measurement": "Plant response rating, Chamomile", "setting": "[12]; [23]", "result": 85}, {"measurement": "Kochia plant response rating", "setting": "[13]; [14]", "result": 45}, {"measurement": "Plant response rating, Kochia", "setting": "[13]; [15]", "result": 95}, {"measurement": "Plant response rating, Kochia", "setting": "[13]; [16]", "result": 100}, {"measurement": "Plant response rating (scale of 0 to 100), Kochia", "setting": "[13]; Preemergence, 31 g ai/ha", "result": 10}, {"measurement": "Plant response rating, Kochia", "setting": "[13]; [17]", "result": 10}, {"measurement": "Plant response rating, Kochia", "setting": "[13]; [18]", "result": 35}, {"measurement": "Plant response rating, Kochia", "setting": "[13]; [19]", "result": 40}, {"measurement": "Plant response rating, Kochia", "setting": "[13]; [20]", "result": 70}]}
